Test results taken from patent US4020076A, “Novel phosphoryloxy-thiazoles” (priority 1974, dated 1977).
Like-named read-outs stand apart in the source and are kept apart here.

Columns and labels:
Type in all cases: in vivo
Spodoptera littoralis = test: Ingestion test against Spodoptera littoralis caterpillars; details: po, read-out: percent of mortality
Procedure: e. Activity against Spodoptera littoralis
This test was effected with Spodoptera littoralis caterpillars 1 to 1.5 cm long and an average of 10 days old. In this ingestion test, 4 ml of an acetone solution of the test products was placed on lettuce rings with an 8 mm diameter which were placed in closed plastic dishes with a 5 cm diameter. 15 caterpillars were placed in each dish and were held at 20° C and 50% relative humidity and were fed when the insects had eaten the treated lettuce ring.

[1] = test system: Ditylenchus Myceliophagus; test: Acaricide activity, Ditylenchus Myceliophagus; details: 24 h, read-out: Percent of mortality after 24 hours; for mortality at 1 µg/mL: 0.001 g/l; for mortality at 10 µg/mL: 0.010 g/l; for mortality at 100 µg/mL: 0.1 g/l
Procedure: In an apparatus containing 10 ml of an aqueous solution of the test product, 0.5 ml of water containing about 2000 acariens of Ditylenchus Myceliophagus were added thereto and the percent of mortality was determined by a binocular magnifying glass after 24 hours.

Blattella germanica = test: Topical application activity against Blattella germanica; details: read-out: percent of mortality
Procedure: b. Activity against Blattella germanica
This test was a topical application in which adult male Blattella germanica received 2 microliters of an acetone solution of the test products between the second and third pair of paws. After this treatment, the test insects were held in a dim light at 20° C and were fed. The results expressed as percent of mortality in Table II were read 24 and 48 hours and 5 days after the treatment.

Musca domestica larvae = test: Contact-ingestion test against Musca domestica larvae; details: read-out: percent of mortality
Procedure: g. Activity against Musca domestica larvae
This contact-ingestion test consisted of placing 2 ml of an acetone solution of different concentrations of the test product on 1 g of bran placed in a watch glass and the solvent was evaporated. The treated bran was placed in a plastic dish and was admixed with 2 ml of milk. 20 3 to 4 day old larvae of Musca domestica were added to the bran and were held at 20° C and 30% relative humidity and 3 tests were conducted for each concentration.

Sitophilus granarius = test: Topical application test against Sitophilus granarius; details: read-out: percent mortality
Procedure: c. Test against Sitophilus granarius
This topical application test comprised preparing the test compounds in acetone solution at concentrations of 5000, 500 and 50 mg of the active compound per liter and 0.2 μl of the solutions were applied to the ventral thorax of 50 Sitophilus granarius for each concentration.

Drosophila melanogaster = test: Vapor activity against Drosophila melanogaster; details: inhaled or nasal, read-out: percentage of mortality
Procedure: a. Activity against Drosophila melanogaster
This test measures the vapor activity of the compounds and the less than 48 hours old insects were placed in a Petri dish with a 10 cm diameter connected by a tergal screen to a crystallizer of the same diameter in which the test compound in acetone solution is placed. The said solution is evaporated after the insects have been placed and 3 tests with 25 insects were run for each concentration. The results are expressed in Table I as a percentage of mortality after 1, 2, 4 and 6 hours.

Musca domestica = test: Topical application activity against Musca domestica; details: read-out: percent of mortality
Procedure: d. Activity against Musca domestica
This topical application test consisted of placing a microliter of an acetone solution of the test product on the dorsal thorax of Musca domestica after having been put to sleep with ether. The insects were held at 20° C and 50% relative humidity and were fed milk and water.

Panagrellus silusiae = test: Nematocidal activity against Panagrellus silusiae
Procedure: b. Activity against Panagrellus silusiae
30 nematodes were placed on a watch glass and three tests were run for each concentration. The 3 watch glasses for each treatment were placed in a Petri dish with a 15 cm diameter containing a film of water in a manner to retard evaporation of the solution to wet the nematodes. The concentration of the product was 125 mg of MA/L and 1 ml of toxic solution was placed on each watch glass containing the nematodes in 0.5 ml of water.

Meloidogynes spec = test: Nematocidal activity against Meloidogynes spec (tomato root galls); details: 25 Kg/ha
Procedure: a. Activity against Meloidogynes spec
A volume of about 3 liters of dirt infested with Meloidogynes spec was placed in a plastic sack. Nematocidal treatments are considered effective to a depth of 30 cm, a volume of 3 liters of dirt corresponding to a surface area of 100 cm^ 2 or 10^-^6 ha (since 100 cm^ 2 × 30 cm = 3000 ml or 3 liters). Each volume of infested dirt received 100 ml of an aqueous suspension containing 0.250 g of the test product (corresponding to 250 Kg/ha) and the controls received only 100 ml of water. The plastic sacks containing the dirt were immediately sealed after the treatment and then agitated to obtain a good distribution of the product. Two weeks after the treatment, the sacks were opened and the dirt was used to plant 3 tomato plants of St. Pierre variety. The plants used were raised in the greenhouse with dirt sterilized with heat to obtain plants free of nematodes. Three plants were used for each test which was run 6 times for each treatment. Two months after planting the tomatoes were removed from the dirt and the efficacy was determined by counting the number of galls observed on the roots. A correlation between the population of Meloidogynes in the pot and the number of galls exists.

CCOc1nc(OP(=S)(OCC)OCC)c(C#N)s1 [A, 2-ethoxy-4-diethoxythiophosphoryloxy-5-cyano-thiazole]
mortality at 62.5 ppm (Spodoptera littoralis; 1 H, 62.5 ppm, ingestion): 0%
mortality at 125 ppm (Spodoptera littoralis; 1 H, 125 ppm, ingestion): 0%
mortality at 250 ppm (Spodoptera littoralis; 1 H, 250 ppm, ingestion): 0%
mortality at 62.5 ppm (Spodoptera littoralis; 48 H, 62.5 ppm, ingestion): 80%
mortality at 125 ppm (Spodoptera littoralis; 48 H, 125 ppm, ingestion): 100%
mortality at 250 ppm (Spodoptera littoralis; 48 H, 250 ppm, ingestion): 100%
mortality at 62.5 ppm (Spodoptera littoralis; 24 h): 60%
mortality at 125 ppm (Spodoptera littoralis; 24 h): 100%
mortality at 250 ppm (Spodoptera littoralis; 24 h): 90%
mortality at 1 µg/mL [1]: 81.8%
mortality at 10 µg/mL [1]: 91.6%
mortality at 100 µg/mL [1]: 100%
mortality at 312.5 ppm (Blattella germanica; 24 H): 65%
mortality at 625 ppm (Blattella germanica; 24 H, 625 ppm): 100%
mortality at 1250 ppm (Blattella germanica; 24 H, 1250 ppm): 100%
mortality at 312.5 ppm (Blattella germanica; 48 H): 70%
mortality at 625 ppm (Blattella germanica; 48 H, 625 ppm): 100%
mortality at 1250 ppm (Blattella germanica; 48 H, 1250 ppm): 100%
mortality at 625 ppm (Blattella germanica; 120 h): 30%
mortality at 1250 ppm (Blattella germanica; 120 h): 100%
mortality at 500 ppm (Musca domestica larvae; 48 H): 37%
mortality at 5000 ppm (Musca domestica larvae; 48 H): 64%
mortality at 500 ppm (Musca domestica larvae; 192 h, 8 Days): 63%
mortality at 5000 ppm (Musca domestica larvae; 192 h, 8 Days): 92%
mortality at 50 ppm (Sitophilus granarius; 4 H): 0%
mortality at 500 ppm (Sitophilus granarius; 4 H): 100%
mortality at 5000 ppm (Sitophilus granarius; 4 H): 100%
mortality at 50 ppm (Sitophilus granarius; 24 H): 0%
mortality at 500 ppm (Sitophilus granarius; 24 H): 100%
mortality at 5000 ppm (Sitophilus granarius; 24 H): 100%
mortality at 50 ppm (Sitophilus granarius; 120 h, 5 Days): 0%
mortality at 500 ppm (Sitophilus granarius; 120 h, 5 Days): 100%
mortality at 5000 ppm (Sitophilus granarius; 120 h, 5 Days): 100%
mortality at 5 ppm (Drosophila melanogaster; 1 H): 99%
mortality at 50 ppm (Drosophila melanogaster; 1 H): 100%
mortality at 500 ppm (Drosophila melanogaster; 1 H): 100%
mortality at 5 ppm (Drosophila melanogaster; 4 H): 100%
mortality at 50 ppm (Drosophila melanogaster; 4 H): 100%
mortality at 500 ppm (Drosophila melanogaster; 4 H): 100%
mortality at 5 ppm (Drosophila melanogaster; 6 H): 100%
mortality at 50 ppm (Drosophila melanogaster; 6 H): 100%
mortality at 500 ppm (Drosophila melanogaster; 6 H): 100%
mortality at 500 ppm (Musca domestica; 1 H): 91%
mortality at 2500 ppm (Musca domestica; 1 H): 100%
mortality at 5000 ppm (Musca domestica; 1 H): 100%
mortality at 500 ppm (Musca domestica; 24 H): 94%
mortality at 2500 ppm (Musca domestica; 24 H): 100%
mortality at 5000 ppm (Musca domestica; 24 H): 100%

CCCCOc1nc(OP(=S)(OC)OC)c(C#N)s1 [Compound B, 2-n-butoxy-4-dimethoxythiophosphoryloxy-5-cyano-thiazole]
mortality at 125 ppm (Spodoptera littoralis; 1 H, 125 ppm, ingestion): 0%
mortality at 250 ppm (Spodoptera littoralis; 1 H, 250 ppm, ingestion): 0%
mortality at 500 ppm (Spodoptera littoralis; 1 H, ingestion): 0%
mortality at 125 ppm (Spodoptera littoralis; 24 H, 125 ppm, ingestion): 50%
mortality at 250 ppm (Spodoptera littoralis; 24 H, 250 ppm, ingestion): 100%
mortality at 500 ppm (Spodoptera littoralis; 24 H, ingestion): 100%
mortality at 125 ppm (Spodoptera littoralis; 48 H, 125 ppm, ingestion): 90%
mortality at 250 ppm (Spodoptera littoralis; 48 H, 250 ppm, ingestion): 100%
mortality at 500 ppm (Spodoptera littoralis; 48 H, ingestion): 100%
mortality at 1 µg/mL [1]: 43.3%
mortality at 10 µg/mL [1]: 95.9%
mortality at 100 µg/mL [1]: 98.5%
mortality at 500 ppm (Musca domestica larvae; 48 H): 88%
mortality at 5000 ppm (Musca domestica larvae; 48 H): 93%
mortality at 500 ppm (Musca domestica larvae; 192 h, 8 Days): 98%
mortality at 5000 ppm (Musca domestica larvae; 192 h, 8 Days): 98%
mortality at 50 ppm (Sitophilus granarius; 4 H): 0%
mortality at 500 ppm (Sitophilus granarius; 4 H): 96%
mortality at 5000 ppm (Sitophilus granarius; 4 H): 100%
mortality at 50 ppm (Sitophilus granarius; 24 H): 0%
mortality at 500 ppm (Sitophilus granarius; 24 H): 100%
mortality at 5000 ppm (Sitophilus granarius; 24 H): 100%
mortality at 50 ppm (Sitophilus granarius; 120 h, 5 Days): 0%
mortality at 500 ppm (Sitophilus granarius; 120 h, 5 Days): 100%
mortality at 5000 ppm (Sitophilus granarius; 120 h, 5 Days): 100%
mortality at 5 ppm (Drosophila melanogaster; 1 H): 0%
mortality at 50 ppm (Drosophila melanogaster; 1 H): 77%
mortality at 500 ppm (Drosophila melanogaster; 1 H): 100%
mortality at 5 ppm (Drosophila melanogaster; 4 H): 100%
mortality at 50 ppm (Drosophila melanogaster; 4 H): 100%
mortality at 500 ppm (Drosophila melanogaster; 4 H): 100%
mortality at 5 ppm (Drosophila melanogaster; 6 H): 100%
mortality at 50 ppm (Drosophila melanogaster; 6 H): 100%
mortality at 500 ppm (Drosophila melanogaster; 6 H): 100%
mortality at 500 ppm (Musca domestica; 1 H): 96%
mortality at 2500 ppm (Musca domestica; 1 H): 100%
mortality at 5000 ppm (Musca domestica; 1 H): 100%
mortality at 500 ppm (Musca domestica; 24 H): 100%
mortality at 2500 ppm (Musca domestica; 24 H): 100%
mortality at 5000 ppm (Musca domestica; 24 H): 100%
mortality at 1 µg/mL (Panagrellus silusiae; 0.001 g/l, 24 hours): 89.3%
mortality at 10 µg/mL (Panagrellus silusiae; 0.01 g/l, 24 hours): 100%
mortality at 100 µg/mL (Panagrellus silusiae; 24 h, read-out: % of mortality): 100%

CCOc1nc(OP(=O)(OC)OC)c(C#N)s1 [Compound D, 2-ethoxy-4-dimethoxyphosphoryloxy-5-cyano-thiazole]
mortality at 5000 ppm (Blattella germanica; 24 H): 100%
mortality at 5000 ppm (Blattella germanica; 48 H): 100%
mortality at 5000 ppm (Blattella germanica; 120 h, 5 Days): 100%
mortality at 5000 ppm (Musca domestica larvae; 192 h, 8 Days): 90%
mortality at 5000 ppm (Sitophilus granarius; 4 H): 100%
mortality at 5000 ppm (Sitophilus granarius; 24 H): 100%
mortality at 5000 ppm (Sitophilus granarius; 120 h, 5 Days): 100%
mortality at 500 ppm (Drosophila melanogaster; 2 H): 100%
mortality at 500 ppm (Drosophila melanogaster; 6 H): 100%
Relative efficacity in % as compound to controls (Meloidogynes spec): 52.8%
Number of galls per foot (Meloidogynes spec; control 44.4): 31.25
Total number of galls (Meloidogynes spec; control 222): 125
mortality at 5000 ppm (Musca domestica; 24 H): 64%
